Measurements reported in patent US20210113522A1, “COUMARIN DERIVATIVE AS ANTI-ASTHMATIC AGENT, PHARMACEUTICAL COMPOSITION THEREOF, ITS PREPARATION AND USE” (I-NOVA MEDICINSKA ISTRAZIVANJA D.O.O., priority 2017, published 2021).

System: croton oil-induced ear edema
Test: Croton oil-induced ear edema in mice
Format: in vivo, Balb/c mice
Details: dexamethasone 1 mg/kg, 1 2 mg/kg
Excerpt: The presents study aims to detect the inflammatory/anti-inflammatory potential effects of compound 1 in a model of acute skin inflammation induced by local application of phlogistic agent croton oil in Balb/c mice. The technique for croton oil-induced ear edema in mice, originally described by Tubaro et al., was followed, with modifications; see literature references 16 and 17: • 16) A. Tubaro, P. Dri, G. Delbello, C. Zilli, R. Della Loggia: The croton oil ear test revisited, Agents Actions 17 (1986) 347-349. • 17) G. Coruzzi, C. Pozzoli, M. Adami, D. Grandi, N. Guido, R. Smits, I. de Esch and R. Leurs: Strain-dependent effects of the histamine H4 receptor antagonist JNJ7777120 in a murine model of acute skin inflammation, Experimental Dermatology 21 (2011) 32-37.
Mice (total 40) were separated into 4 groups (n=10). Each group was treated under different regimen:
Cutaneous inflammation was induced in conscious mice by topical application of croton oil (5% in acetone).
Six hours after croton oil application, mice were euthanized by light ether anaesthesia, followed by cervical dislocation; both left (acetone) and right (croton oil in acetone) ears were removed, by cutting horizontally across the indentation at the base of the ear. For each mouse, the extent of the oedema was expressed as the difference in weight (Δ [mg]) between right (inflamed) and left (uninflamed) ear. The percentage increase in the oedema of the treated ear was calculated by the following formula: […]
The presents study aims to detect the inflammatory/anti-inflammatory potential effects of compound 1 in a model of acute skin inflammation induced by local application of phlogistic agent croton oil in Balb/c mice. The technique for croton oil-induced ear edema in mice, originally described by Tubaro et al., was followed, with modifications; see literature references 16 and 17.
In preliminary experiments, the effect of subcutaneous (s.c.) administration of saline, 100% DMSO or 20% 2-hydroxypropyl-β-cyclodextrin was investigated to check the vehicle effects on ear inflammation.
The statistical significance between the groups was assessed by one-way analysis of variance (ANOVA) followed by a post hoc Tukey test. The accepted level of significance for the test was P<0.05. All tests were carried out using GraphPad Software (San Diego, Calif., USA).

SMILES: C[C@@H]1C[C@H]2[C@@H]3CCC4=CC(=O)C=C[C@]4(C)[C@@]3(F)[C@@H](O)C[C@]2(C)[C@@]1(O)C(=O)CO [dexamethasone, reference compound]
- Percentage of increasing the ear edema (6 h after croton oil): 44.2%
- Maximal inhibition of croton oil-induced ear oedema (Balb/c mice, 6 h): approximately 60%
- Left ear m (left ear: 80% 2HPβCD + 20% DMSO (uninflamed), 6 h): 0.0360 g
- Right ear m (right ear: substance + croton oil after 30 min, 6 h): 0.0519 g
